Measured values taken from patent US20050215644A1, “Methods for increasing neurotransmitter levels using hydroxycitric acid” (InterHealth Nutraceuticals, Inc., priority 2004, published 2005).

Columns and labels:
[1] = system: rat brain cortex neurotransmitters; test: effects of an HCA extract and fluoxetine on rat brain cortex neurotransmitters (reverse phase HPLC with electrochemical detection); assay type: in vivo; conditions: for increase in DOPAC / increase in cortex DA / increase in cortex 5-HT: after 90 days; for increase in DOPAC / increase in cortex DA / increase in cortex 5-HT / decrease in cortex HIAA / decrease in DA / decrease in cortex HVA: p<0.05; for decrease in cortex HIAA / decrease in cortex 5-HT / decrease in DA / decrease in cortex HVA: 15 mg/kg per day oral
Experimental: […] The 5% HCA dose corresponds to 25-times the recommended dose of HCA. Animals were euthanized after 30, 60 and 90 days. Brain cortices were analyzed for serotonin (5-HT), its metabolite 5-hydroxyindoleacetic acid (HIAA), dopamine (DA), and its metabolites 3, 4-dihydroxyphenylacetic acid (DOPAC) and homovanillic acid (HVA) content utilizing reverse phase HPLC with electrochemical detection.

[2] = system: isolated rat brain cortex; conditions: cited from earlier work
[3] = first of three values (day 30 by analogy with b27)
[4] = second of three values (day 60 by analogy with b27)
[5] = third of three values (day 90 by analogy with b27)

## O=C(O)CC(O)(C(=O)O)C(O)C(=O)O (single isomer, unassigned; (-)) [HCA, (−)-hydroxycitric acid]
[1]; HCA 0.02% oral
  increase in DOPAC: 23%
  increase in cortex DA: 10%
[1]; HCA 0.02% oral, day 90, p<0.05
  increase in cortex HVA: 12%
[1]; HCA 0.2% of diet (10 mg per day) oral
  increase in cortex 5-HT: 11%
[1]; HCA 2% of diet (100 mg per day) oral
  increase in cortex 5-HT: 9%
[1]; HCA 2% of diet oral
  increase in DOPAC: 26%
  increase in cortex DA: 15%
[1]; HCA 2% of diet oral, day 90, p<0.05
  increase in cortex HVA: 15%
[1]; HCA 5% of diet (250 mg per day) oral
  increase in cortex 5-HT: 12%
[1]; HCA 5% of diet oral
  increase in DOPAC: 29%
  increase in cortex DA: 18%
[1]; HCA 5% of diet oral, day 90, p<0.05
  increase in cortex HVA: 13%
[1]; any of the HCA treatment groups (0.2, 2, 5% of diet; 30, 60, 90 days)
  changes in HIAA: No changes
[2]; HCA applied on its own
  efflux of 5-HT: concentration-dependent increase
[2]
  effect on baseline of spontaneous tritium efflux: altered the baseline
  effect on potassium-evoked release of 5-HT: no significant effect

## CNCCC(Oc1ccc(C(F)(F)F)cc1)c1ccccc1 (centres unmarked) [fluoxetine, reference compound]
[1]; 30 days post-treatment
  decrease in cortex HIAA: 19%
[1]; 60 days post-treatment
  decrease in cortex HIAA: 15%
[1]; 90 days post-treatment
  decrease in cortex HIAA: 17%
[1]; day 30, p<0.05
  decrease in cortex 5-HT: 9%
[1]; day 60, p<0.05
  decrease in cortex 5-HT: 7%
[1]; day 90, p<0.05
  decrease in cortex 5-HT: 8%
[1]; [3]
  decrease in DA: 18%
  decrease in cortex HVA: 17%
[1]; [4]
  decrease in DA: 15%
  decrease in cortex HVA: 13%
[1]; [5]
  decrease in DA: 19%
  decrease in cortex HVA: 14%
[1]; all fluoxetine groups (15 mg/kg per day oral; 30, 60, 90 days)
  changes in cortex DOPAC: No changes
